Experimental data: patent US11827628B2, “Compositions and methods for inhibition of the JAK pathway” (Rigel Pharmaceuticals, Inc., priority 2005, dated 2023)

Test system: up-regulation of ICAM-1 (CD54) by IFNγ in U937 human monocytic cells
Assay: U937 IFNγ ICAM1 FACS Assay
Assay type: cell-based
Details: U937 cells stimulated with IFNγ; ICAM-1 expression by FACS; read-out: IC50, Example 44
Procedure, shortened: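 U937 cells in 10% FCS RPMI were preincubated 30 min at 37 °C with an 8-point, 3-fold compound dilution series in duplicate, then stimulated with IFNγ for 18–24 h. Surface ICAM-1 was stained with APC anti-ICAM-1 and read by flow cytometry as geometric mean on live-gated cells. EC50 was derived.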

Compound | IC50 [nM]
CNS(=O)(=O)c1cc(Nc2ncc(F)c(Nc3ccc(OCc4csc(C)n4)cc3)n2)ccc1C [Compound I-282, 5-Fluoro-N2-[3-(N-methylaminosulfony)-4-methylphenyl]-N4-[4-(2-methylthiazol-4-yl)methyleneoxyphenyl]-2,4-pyrimidinediamine] | 3100
CCN(CC)CCNS(=O)(=O)c1cccc(Nc2ncc(F)c(Nc3ccc(OCc4csc(C)n4)cc3)n2)c1 [Compound I-283, N2-[3-(2-N,N-Diethylaminoethyl)aminosulfonylphenyl)-5-fluoro-N4-[4-(2-methylthizol-4-yl)methyleneoxyphenyl]-2,4-pyrimidinediamine] | 2940
CCN(CC)CCNS(=O)(=O)c1ccc(Nc2ncc(F)c(Nc3ccc(OCc4csc(C)n4)cc3)n2)cc1 [Compound I-284, N2-[4-(2-N,N-Diethylaminoethyl)aminosulfonylphenyl)-5-fluoro-N4-[4-(2-methylthizol-4-yl)methyleneoxyphenyl]-2,4-pyrimidinediamine] | 1550
Cc1nc(COc2ccc(Nc3nc(Nc4ccc(S(N)(=O)=O)cc4)ncc3F)cc2)cs1 [Compound I-285, N2-(4-Aminosulfonylphenyl)-5-fluoro-N4-[4-(2-methylthiazol-4-yl)methyleneoxyphenyl]-2,4-pyrimidinediamine] | 1480
CN1CCC(Oc2ccc(Nc3nc(Nc4cccc(S(N)(=O)=O)c4)ncc3F)cc2)C1 (stereo not drawn) [II-9, N2-(3-Aminosulfonylphenyl)-5-fluoro-N4-(N-methylpyrrolidin-3-yloxyphenyl)-2,4-pyrimidinediamine] | 2720
Cc1ccc(Nc2ncc(F)c(Nc3ccc(OC4CCN(C)C4)cc3)n2)cc1S(N)(=O)=O (stereo not drawn) [II-10, N2-(3-Aminosulfonyl-4-methylphenyl)-5-fluoro-N4-(N-methylpyrrolidin-3-yloxyphenyl)-2,4-pyrimidinediamine] | 1400
CNS(=O)(=O)c1cc(Nc2ncc(F)c(Nc3ccc(CC#N)cc3)n2)ccc1C [III-1, 5-Fluoro-N2-[3-(N-methylaminosulfony)-4-methylphenyl]-5-fluoro-N4-(4-cyanomethylphenyl)-2,4-pyrimidinediamine] | 1120
CCN(CC)CCNS(=O)(=O)c1ccc(Nc2ncc(F)c(Nc3ccc(CC#N)cc3)n2)cc1 [III-2, N2-[4-(2-N,N-Diethylaminoethyl)aminosulfonylphenyl)-5-fluoro-N4-(4-cyanomethylphenyl)-2,4-pyrimidinediamine] | 6720
N#CCc1ccc(Nc2nc(Nc3cccc(S(N)(=O)=O)c3)ncc2F)cc1 [III-4, N2-(3-Aminosulfonyl)phenyl-N4-(4-cyanomethyl)phenyl-5-fluoro-2,4-pyrimidinediamine] | 1720
Cc1ccc(Nc2ncc(F)c(Nc3ccc(CC#N)cc3)n2)cc1S(N)(=O)=O [III-7, N2-(3-Aminosulfonyl-4-methyl)phenyl-N4-(4-cyanomethyl)phenyl-5-fluoro-2,4-pyrimidinediamine] | 1090
N#CCc1ccc(Nc2nc(Nc3ccc(Cl)c(S(N)(=O)=O)c3)ncc2F)cc1 [III-8, N2-(3-Aminosulfonyl-4-chloro)phenyl-N4-(4-cyanomethyl)phenyl-5-fluoro-2,4-pyrimidinediamine] | 2250
COc1cc(Nc2ncc(F)c(Nc3ccc(CC#N)cc3)n2)ccc1S(N)(=O)=O [III-9, N2-(4-Aminosulfonyl-3-methoxy)phenyl-N4-(4-cyanomethyl)phenyl-5-fluoro-2,4-pyrimidinediamine] | 6980
N#CCc1ccc(Nc2nc(Nc3ccc(F)c(S(N)(=O)=O)c3)ncc2F)cc1 [III-10, N2-(3-Aminosulfonyl-4-fluoro)phenyl-N4-(4-cyanomethyl)phenyl-5-fluoro-2,4-pyrimidinediamine] | 3520
Cc1ccc(Nc2ncc(C)c(Nc3ccc(CCC#N)cc3)n2)cc1S(N)(=O)=O [III-11] | 168
N#CCCc1ccc(Nc2nc(Nc3cccc(S(N)(=O)=O)c3)ncc2F)cc1 [III-14, N2-(3-aminosulfonylphenyl)-N4-[4-(cyanoethylene)phenyl]-5-fluoro-2,4-pyrimidinediamine] | 585
